{
  "source": "patent EP1295874A2",
  "about": "“Retroviral protease inhibiting compounds” (Abbott Laboratories, priority 1995, dated 1997)",
  "test_in_all_cases": "microbe, parasite or virus in culture",
  "type_in_all_cases": "cell-based",
  "key": {"[1]": {"system": "HIV Selected In Vitro by the Compound of Example 2B"}, "[2]": {"system": "Ritonavir-Resistant HIV from Patients"}, "[3]": {"system": "Ritonavir-Resistant Mutant HIV Clones"}},
  "data": [
    {"molecule": "CC(C)c1nc(CN(C)C(=O)N[C@H](C(=O)N[C@@H](Cc2ccccc2)C[C@H](O)[C@H](Cc2ccccc2)NC(=O)OCc2cncs2)C(C)C)cs1", "note": "[Ritonavir]", "values": [
      {"measurement": "EC50", "setting": "[1]; Human immunodeficiency virus 1, NL43, Virus NL4-3", "value": 98, "unit": "nM"},
      {"measurement": "EC50", "setting": "[1]; Human immunodeficiency virus 1, Virus P7", "value": 221, "unit": "nM"},
      {"measurement": "EC50", "setting": "[1]; Human immunodeficiency virus 1, Virus P11", "value": 478, "unit": "nM"},
      {"measurement": "EC50", "setting": "[1]; Human immunodeficiency virus 1, Virus P14", "value": 1740, "unit": "nM"},
      {"measurement": "EC50", "setting": "[1]; Human immunodeficiency virus 1, Virus P17", "value": 2090, "unit": "nM"},
      {"measurement": "cross-resistance (fold)", "setting": "[1]; passaged virus P14, P17", "value": "18-20 fold"},
      {"measurement": "EC50", "setting": "[2]; Human immunodeficiency virus 1, 24 h, Patient No. 313, Day 1, baseline", "value": 12, "unit": "nM"},
      {"measurement": "EC50", "setting": "[2]; Human immunodeficiency virus 1, 24 h, Patient No. 410, Day 1, baseline", "value": 29, "unit": "nM"},
      {"measurement": "EC50", "setting": "[2]; Human immunodeficiency virus 1, 504 h, Patient No. 104, Day 21, V82A", "value": 46, "unit": "nM"},
      {"measurement": "EC50", "setting": "[2]; Human immunodeficiency virus 1, 672 h, Patient No. 104, Day 28, V82T", "value": 67, "unit": "nM"},
      {"measurement": "EC50", "setting": "[2]; Human immunodeficiency virus 1, Patient No. 104, Day -1, baseline", "value": 21, "unit": "nM"},
      {"measurement": "EC50", "setting": "[2]; Human immunodeficiency virus 1, Patient No. 129, Day 84, M36I, I54V, A71V, V82T", "value": 203, "unit": "nM"},
      {"measurement": "EC50", "setting": "[2]; Human immunodeficiency virus 1, Patient No. 129, Day 140, K20K/R, M36M/I, I54V, A71A/V, V82T", "value": 677, "unit": "nM"},
      {"measurement": "EC50", "setting": "[2]; Human immunodeficiency virus 1, Patient No. 129, Day -1, baseline", "value": 24, "unit": "nM"},
      {"measurement": "EC50", "setting": "[2]; Human immunodeficiency virus 1, Patient No. 131, Day 88, M36I, 154V>I, V82A", "value": 163, "unit": "nM"},
      {"measurement": "EC50", "setting": "[2]; Human immunodeficiency virus 1, Patient No. 131, Day 200, K20K/R, M36I, I54I/V, V82A", "value": 731, "unit": "nM"},
      {"measurement": "EC50", "setting": "[2]; Human immunodeficiency virus 1, Patient No. 131, Day -28, baseline", "value": 18, "unit": "nM"},
      {"measurement": "EC50", "setting": "[2]; Human immunodeficiency virus 1, Patient No. 224, Day 110, L33L/F, V82T/S", "value": 79, "unit": "nM"},
      {"measurement": "EC50", "setting": "[2]; Human immunodeficiency virus 1, Patient No. 224, Day 190, K20K/N/R, L33L/F, M36M/I, I54V/M, V82S", "value": 496, "unit": "nM"},
      {"measurement": "EC50", "setting": "[2]; Human immunodeficiency virus 1, Patient No. 224, Day -6, baseline", "value": 29, "unit": "nM"},
      {"measurement": "EC50", "setting": "[2]; Human immunodeficiency virus 1, Patient No. 235, Day 167, I54I/V, A71V, V82A. L90L/M", "value": 66, "unit": "nM"},
      {"measurement": "EC50", "setting": "[2]; Human immunodeficiency virus 1, Patient No. 235, Day -1, baseline", "value": 10, "unit": "nM"},
      {"measurement": "EC50", "setting": "[2]; Human immunodeficiency virus 1, Patient No. 313, Day 57, M36M/I, V82F", "value": 64, "unit": "nM"},
      {"measurement": "EC50", "setting": "[2]; Human immunodeficiency virus 1, Patient No. 313, Day 85, M36M/I, I54I/V, V82S/F/A/T", "value": 274, "unit": "nM"},
      {"measurement": "EC50", "setting": "[2]; Human immunodeficiency virus 1, Patient No. 410, Day 57, M36M/I, I54I/V, V82A", "value": 341, "unit": "nM"},
      {"measurement": "EC50", "setting": "[2]; Human immunodeficiency virus 1, Patient No. 410, Day 85, M36I, I54V, V82A", "value": 545, "unit": "nM"},
      {"measurement": "EC50", "setting": "[3]; Human immunodeficiency virus 1, HXB2, Virus Clone Wild Type (HXB2), 0% Human Serum", "value": 64, "unit": "nM"},
      {"measurement": "EC50", "setting": "[3]; Human immunodeficiency virus 1, HXB2, Virus Clone Wild Type (HXB2), 50% Human Serum", "value": 1050, "unit": "nM"},
      {"measurement": "EC50", "setting": "[3]; Human immunodeficiency virus 1, Virus Clone E35D, M36I, I54V, A71V, V82T, 0% Human Serum", "value": 1170, "unit": "nM"},
      {"measurement": "EC50", "setting": "[3]; Human immunodeficiency virus 1, Virus Clone E35D, M36I, I54V, A71V, V82T, 50% Human Serum", "value": 21900, "unit": "nM"},
      {"measurement": "EC50", "setting": "[3]; Human immunodeficiency virus 1, Virus Clone G48V, 0% Human Serum", "value": 111, "unit": "nM"},
      {"measurement": "EC50", "setting": "[3]; Human immunodeficiency virus 1, Virus Clone G48V, 50% Human Serum", "value": 1710, "unit": "nM"},
      {"measurement": "EC50", "setting": "[3]; Human immunodeficiency virus 1, Virus Clone I54V, V82T, 0% Human Serum", "value": 613, "unit": "nM"},
      {"measurement": "EC50", "setting": "[3]; Human immunodeficiency virus 1, Virus Clone I54V, V82T, 50% Human Serum", "value": 16700, "unit": "nM"},
      {"measurement": "EC50", "setting": "[3]; Human immunodeficiency virus 1, Virus Clone I84V, 0% Human Serum", "value": 141, "unit": "nM"},
      {"measurement": "EC50", "setting": "[3]; Human immunodeficiency virus 1, Virus Clone I84V, 50% Human Serum", "value": 2720, "unit": "nM"},
      {"measurement": "EC50", "setting": "[3]; Human immunodeficiency virus 1, Virus Clone K20R, E35D, M36I, I54V, A71V, V82T, 0% Human Serum", "value": 1420, "unit": "nM"},
      {"measurement": "EC50", "setting": "[3]; Human immunodeficiency virus 1, Virus Clone K20R, E35D, M36I, I54V, A71V, V82T, 50% Human Serum", "value": 16000, "unit": "nM"},
      {"measurement": "EC50", "setting": "[3]; Human immunodeficiency virus 1, Virus Clone L90M, 0% Human Serum", "value": 93, "unit": "nM"},
      {"measurement": "EC50", "setting": "[3]; Human immunodeficiency virus 1, Virus Clone L90M, 50% Human Serum", "value": 2280, "unit": "nM"},
      {"measurement": "EC50", "setting": "[3]; Human immunodeficiency virus 1, Virus Clone V82A, 0% Human Serum", "value": 144, "unit": "nM"},
      {"measurement": "EC50", "setting": "[3]; Human immunodeficiency virus 1, Virus Clone V82A, 50% Human Serum", "value": 4080, "unit": "nM"},
      {"measurement": "EC50", "setting": "[3]; Human immunodeficiency virus 1, Virus Clone V82F, 0% Human Serum", "value": 146, "unit": "nM"},
      {"measurement": "EC50", "setting": "[3]; Human immunodeficiency virus 1, Virus Clone V82F, 50% Human Serum", "value": 3600, "unit": "nM"},
      {"measurement": "EC50", "setting": "[3]; Human immunodeficiency virus 1, Virus Clone V82S, 0% Human Serum", "value": 304, "unit": "nM"},
      {"measurement": "EC50", "setting": "[3]; Human immunodeficiency virus 1, Virus Clone V82S, 50% Human Serum", "value": 9220, "unit": "nM"},
      {"measurement": "EC50", "setting": "[3]; Human immunodeficiency virus 1, Virus Clone V82T, 0% Human Serum", "value": 146, "unit": "nM"},
      {"measurement": "EC50", "setting": "[3]; Human immunodeficiency virus 1, Virus Clone V82T, 50% Human Serum", "value": 5640, "unit": "nM"},
      {"measurement": "EC50", "setting": "[3]; Human immunodeficiency virus 1, Virus Clone Wild Type (pNL4-3), 0% Human Serum", "value": 71, "unit": "nM"},
      {"measurement": "EC50", "setting": "[3]; Human immunodeficiency virus 1, Virus Clone Wild Type (pNL4-3), 50% Human Serum", "value": 1400, "unit": "nM"}
    ]}
  ]
}
